# Ends that are not written are not given here.
# Tested on: human platelets
# Format: cell-based
# Description: The cytoplasmic free Ca^2+ concentration ([Ca^2+ ]i) was measured using the fluorescent Ca^2 + indicator fura-2 (Molecular Probes, Inc., Eugene, Oreg.). Gel filtered platelets in Hepes-Tyrode's buffer were loaded with fura-2 by incubation at 37° C. with 1 μM fura-2/acetoxymethyl ester for 45 min according to the method of Rasmussen et al., J. Biol. Chem. 268, 14322 (1993). The labeled platelets were then re-gel filtered to remove any excess probe. Aliquots of the labeled platelet suspension were transferred into a quartz cuvette with a magnetic stirrer, which was then placed in a thermostatically controlled chamber at 37° C. in a fluorescence spectrophotometer (Dual Wave Length Shimazdu SP5000 Spectrofluorometer, Shimazdu USA, Pittsburgh, Pa.). Reagents were directly added to the cuvette. The excitation wave lengths varied between 340 and 380 nm. The fluorescence was measured by recording emitted light at 510 nm as reported by Fisher et al, Mol. Pharm. 35, 195 (1989). The minimum emission was determined on a 20 mM digitonin, 10 mM EGTA solubilized platelet sample; maximum emission was determined on the same sample with 10 mM Ca^2+ added. The intraplatelet free Ca^2+ concentration was calculated by the method of Grykiewicz et al., J. Biol. Chem. 260, 3440 (1985). The ratio of the fluorescence readings was calculated as R=340/380 nm and processed according to the equation [Ca^2+ ]i =KD ((R-Rmin)/Rmax -R))(Sf2 /Sb2) to determine the intraplatelet free Ca^2+ concentration. The KD for fura-2 was assumed to be 224 nM. Rmax and Rmin are the maximum and minimum fluorescence ratios measured at the end of the experiment, respectively; Sf2 and Sb2 are the fluorescence values at 380 nm in the absence and presence of saturating [Ca^2+ ], respectively.
sequence,measurement,setting,value
"RPPGFSPFR [BK, bradykinin]",inhibition of α-thrombin-induced calcium mobilization,"FIG. 2, concentration not given",block
same,IC50,"gel filtered platelets, read-out: IC50, α-thrombin-induced Ca2+ mobilization",230 µM
